Measurements published in the NIST ThermoML archive (doi:10.1021/acs.jced.6b00455).

Experiment: mn = molality of the nth substance listed, in mol/kg
Settings: 101 kPa, Liquid, Alternating current cell with electrodes

C[N+](C)(C)CCO.O=C([O-])C(F)(F)C(F)(F)C(F)(F)C(F)(F)F [(2-hydroxyethyl)trimethylammonium perfluoropentanoate] + O
Settings | electrical conductivity [S/m]
293.15 K, m1 = 0.000529 | 0.0033
293.15 K, m1 = 0.001164 | 0.0074
293.15 K, m1 = 0.001886 | 0.012
293.15 K, m1 = 0.002281 | 0.0144
293.15 K, m1 = 0.002766 | 0.0174
293.15 K, m1 = 0.003311 | 0.0207
293.15 K, m1 = 0.003805 | 0.0236
293.15 K, m1 = 0.004377 | 0.0271
293.15 K, m1 = 0.004908 | 0.0302
293.15 K, m1 = 0.005409 | 0.033
293.15 K, m1 = 0.005979 | 0.0364
293.15 K, m1 = 0.006697 | 0.0404
293.15 K, m1 = 0.007467 | 0.0447
293.15 K, m1 = 0.008082 | 0.0481
293.15 K, m1 = 0.00858 | 0.0508
293.15 K, m1 = 0.009905 | 0.058
293.15 K, m1 = 0.01142 | 0.066
293.15 K, m1 = 0.0124 | 0.0711
293.15 K, m1 = 0.01324 | 0.0753
293.15 K, m1 = 0.01399 | 0.0792
293.15 K, m1 = 0.01513 | 0.085
293.15 K, m1 = 0.01598 | 0.0891
293.15 K, m1 = 0.01695 | 0.0936
293.15 K, m1 = 0.01789 | 0.098
293.15 K, m1 = 0.01884 | 0.102
293.15 K, m1 = 0.01994 | 0.108
293.15 K, m1 = 0.02076 | 0.112
293.15 K, m1 = 0.02179 | 0.116
293.15 K, m1 = 0.02264 | 0.12
293.15 K, m1 = 0.02348 | 0.123
293.15 K, m1 = 0.0245 | 0.128
298.15 K, m1 = 0.00173 | 0.0127
298.15 K, m1 = 0.003076 | 0.0222
298.15 K, m1 = 0.004761 | 0.0337
298.15 K, m1 = 0.006222 | 0.0434
298.15 K, m1 = 0.007398 | 0.0509
298.15 K, m1 = 0.008599 | 0.0589
298.15 K, m1 = 0.01005 | 0.0687
298.15 K, m1 = 0.01198 | 0.0799
298.15 K, m1 = 0.01368 | 0.0892
298.15 K, m1 = 0.01543 | 0.0996
298.15 K, m1 = 0.01692 | 0.108
298.15 K, m1 = 0.0184 | 0.116
298.15 K, m1 = 0.02111 | 0.131
298.15 K, m1 = 0.02244 | 0.138
298.15 K, m1 = 0.02415 | 0.148
298.15 K, m1 = 0.02609 | 0.158
298.15 K, m1 = 0.02818 | 0.17
298.15 K, m1 = 0.031 | 0.183
298.15 K, m1 = 0.03389 | 0.198
298.15 K, m1 = 0.03746 | 0.215
298.15 K, m1 = 0.04011 | 0.228
298.15 K, m1 = 0.04312 | 0.245
303.15 K, m1 = 0.000602 | 0.005
303.15 K, m1 = 0.001118 | 0.0092
303.15 K, m1 = 0.001883 | 0.0153
303.15 K, m1 = 0.002669 | 0.0214
303.15 K, m1 = 0.002939 | 0.0235
303.15 K, m1 = 0.003765 | 0.0297
303.15 K, m1 = 0.004158 | 0.0325
303.15 K, m1 = 0.004947 | 0.0388
303.15 K, m1 = 0.005615 | 0.0446
303.15 K, m1 = 0.006164 | 0.0494
303.15 K, m1 = 0.006758 | 0.0518
303.15 K, m1 = 0.007514 | 0.0567
303.15 K, m1 = 0.008082 | 0.0606
303.15 K, m1 = 0.008631 | 0.0643
303.15 K, m1 = 0.009197 | 0.0673
303.15 K, m1 = 0.01012 | 0.0743
303.15 K, m1 = 0.01148 | 0.0832
303.15 K, m1 = 0.01208 | 0.0872
303.15 K, m1 = 0.0126 | 0.0906
303.15 K, m1 = 0.0131 | 0.0936
303.15 K, m1 = 0.01373 | 0.0973
303.15 K, m1 = 0.01442 | 0.102
303.15 K, m1 = 0.01495 | 0.105
303.15 K, m1 = 0.01641 | 0.114
303.15 K, m1 = 0.01705 | 0.118
303.15 K, m1 = 0.01772 | 0.121
303.15 K, m1 = 0.01824 | 0.124
303.15 K, m1 = 0.01885 | 0.128
303.15 K, m1 = 0.01941 | 0.131
303.15 K, m1 = 0.01993 | 0.134
303.15 K, m1 = 0.02055 | 0.138
303.15 K, m1 = 0.02116 | 0.142
303.15 K, m1 = 0.02184 | 0.146
303.15 K, m1 = 0.02259 | 0.15
303.15 K, m1 = 0.02308 | 0.153
303.15 K, m1 = 0.0237 | 0.157
303.15 K, m1 = 0.0247 | 0.164
303.15 K, m1 = 0.02557 | 0.168
308.15 K, m1 = 0.000318 | 0.0029
308.15 K, m1 = 0.000786 | 0.007
308.15 K, m1 = 0.001299 | 0.0115
308.15 K, m1 = 0.001909 | 0.0169
308.15 K, m1 = 0.002425 | 0.021
308.15 K, m1 = 0.002911 | 0.0256
308.15 K, m1 = 0.003184 | 0.0277
308.15 K, m1 = 0.003945 | 0.035
308.15 K, m1 = 0.004657 | 0.0404
308.15 K, m1 = 0.005206 | 0.0449
308.15 K, m1 = 0.005836 | 0.0493
308.15 K, m1 = 0.006331 | 0.0529
308.15 K, m1 = 0.006772 | 0.0563
308.15 K, m1 = 0.007443 | 0.0629
308.15 K, m1 = 0.008421 | 0.0711
308.15 K, m1 = 0.008974 | 0.0763
308.15 K, m1 = 0.009871 | 0.0832
308.15 K, m1 = 0.01044 | 0.0864
308.15 K, m1 = 0.01092 | 0.0897
308.15 K, m1 = 0.01159 | 0.0936
308.15 K, m1 = 0.01221 | 0.0982
308.15 K, m1 = 0.01248 | 0.101
308.15 K, m1 = 0.01314 | 0.104
308.15 K, m1 = 0.01361 | 0.108
308.15 K, m1 = 0.01442 | 0.114
308.15 K, m1 = 0.01492 | 0.119
308.15 K, m1 = 0.01568 | 0.125
308.15 K, m1 = 0.0164 | 0.13
308.15 K, m1 = 0.01694 | 0.134
308.15 K, m1 = 0.01787 | 0.14
308.15 K, m1 = 0.01861 | 0.145
308.15 K, m1 = 0.01941 | 0.151
308.15 K, m1 = 0.02104 | 0.162
308.15 K, m1 = 0.02193 | 0.168
308.15 K, m1 = 0.02283 | 0.173
308.15 K, m1 = 0.02369 | 0.178
308.15 K, m1 = 0.02427 | 0.182
308.15 K, m1 = 0.02502 | 0.188
308.15 K, m1 = 0.02563 | 0.192
313.15 K, m1 = 0.000187 | 0.0015
313.15 K, m1 = 0.000688 | 0.0067
313.15 K, m1 = 0.001827 | 0.0169
313.15 K, m1 = 0.002361 | 0.0217
313.15 K, m1 = 0.002859 | 0.0266
313.15 K, m1 = 0.003424 | 0.0322
313.15 K, m1 = 0.00399 | 0.0371
313.15 K, m1 = 0.004604 | 0.0421
313.15 K, m1 = 0.005344 | 0.0499
313.15 K, m1 = 0.005863 | 0.0548
313.15 K, m1 = 0.006345 | 0.0593
313.15 K, m1 = 0.006846 | 0.064
313.15 K, m1 = 0.008054 | 0.074
313.15 K, m1 = 0.008628 | 0.079
313.15 K, m1 = 0.009481 | 0.0864
313.15 K, m1 = 0.009912 | 0.0907
313.15 K, m1 = 0.01048 | 0.0955
313.15 K, m1 = 0.01099 | 0.0999
313.15 K, m1 = 0.01153 | 0.104
313.15 K, m1 = 0.0121 | 0.11
313.15 K, m1 = 0.01268 | 0.114
313.15 K, m1 = 0.01328 | 0.119
313.15 K, m1 = 0.01388 | 0.124
313.15 K, m1 = 0.01459 | 0.13
313.15 K, m1 = 0.01545 | 0.136
313.15 K, m1 = 0.01599 | 0.141
313.15 K, m1 = 0.0169 | 0.148
313.15 K, m1 = 0.01817 | 0.157
313.15 K, m1 = 0.01879 | 0.162
313.15 K, m1 = 0.01965 | 0.169
313.15 K, m1 = 0.02019 | 0.172
313.15 K, m1 = 0.02082 | 0.177
313.15 K, m1 = 0.02134 | 0.18
313.15 K, m1 = 0.02194 | 0.184
313.15 K, m1 = 0.02255 | 0.19
313.15 K, m1 = 0.02328 | 0.195
313.15 K, m1 = 0.02409 | 0.2
